Source: the supplement of paper PMC10307832

Key:
Experiment in all cases: relative viability (nuclei count vs DMSO), 5 days (fraction); higher = more cells survive
Gemcitabine + Pemetrexed = compound: Nc1ccn([C@@H]2O[C@H](CO)[C@@H](O)C2(F)F)c(=O)n1 [Gemcitabine] + Nc1nc2[nH]cc(CCc3ccc(C(=O)N[C@@H](CCC(=O)O)C(=O)O)cc3)c2c(=O)[nH]1 [Pemetrexed] (partner 0.2 µM)
How it was run: (§1)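 Values are medians from duplicate plates. Each reflects relative viability, defined as the nuclei count of treated wells over that of vehicle wells. Lung cancer cell lines in 1536-well plates were pin-tool dosed one day after seeding with one drug alone or with a fixed anchor-drug dose plus five library-drug doses (not always all listed) in √10 steps, then fixed, stained and imaged at 4× after 5 days.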

Gemcitabine + Navitoclax = compound: Nc1ccn([C@@H]2O[C@H](CO)[C@@H](O)C2(F)F)c(=O)n1 [Gemcitabine] + CC1(C)CCC(c2ccc(Cl)cc2)=C(CN2CCN(c3ccc(C(=O)NS(=O)(=O)c4ccc(N[C@H](CCN5CCOCC5)CSc5ccccc5)c(S(=O)(=O)C(F)(F)F)c4)cc3)CC2)C1 [Navitoclax] (partner 0.5 µM)
How it was run: as §1

Gemcitabine + Linsitinib = compound: Nc1ccn([C@@H]2O[C@H](CO)[C@@H](O)C2(F)F)c(=O)n1 [Gemcitabine] + C[C@]1(O)C[C@@H](c2nc(-c3ccc4ccc(-c5ccccc5)nc4c3)c3c(N)nccn32)C1 [Linsitinib] (partner 1 µM)
How it was run: as §1

Gemcitabine + Vorinostat = compound: Nc1ccn([C@@H]2O[C@H](CO)[C@@H](O)C2(F)F)c(=O)n1 [Gemcitabine] + O=C(CCCCCCC(=O)Nc1ccccc1)NO [Vorinostat] (partner 1 µM)
How it was run: as §1

NCI-H596
relative viability (Gemcitabine + Pemetrexed; first compound 0.001 µM): 0.531 | relative viability (Gemcitabine + Pemetrexed; first compound 0.003162 µM): 0.491 | relative viability (Gemcitabine + Pemetrexed; first compound 0.01 µM): 0.476 | relative viability (Gemcitabine + Pemetrexed; first compound 0.03162 µM): 0.403 | relative viability (Gemcitabine + Pemetrexed; first compound 0.1 µM): 0.319 | relative viability (Gemcitabine + Navitoclax; first compound 0.001 µM): 1.06 | relative viability (Gemcitabine + Navitoclax; first compound 0.003162 µM): 0.949 | relative viability (Gemcitabine + Navitoclax; first compound 0.01 µM): 0.506 | relative viability (Gemcitabine + Navitoclax; first compound 0.03162 µM): 0.23 | relative viability (Gemcitabine + Navitoclax; first compound 0.1 µM): 0.171 | relative viability (Gemcitabine + Linsitinib; first compound 0.001 µM): 1.11 | relative viability (Gemcitabine + Linsitinib; first compound 0.003162 µM): 1.06 | relative viability (Gemcitabine + Linsitinib; first compound 0.01 µM): 0.727 | relative viability (Gemcitabine + Linsitinib; first compound 0.03162 µM): 0.384 | relative viability (Gemcitabine + Linsitinib; first compound 0.1 µM): 0.357 | relative viability (Gemcitabine + Vorinostat; first compound 0.001 µM): 0.657 | relative viability (Gemcitabine + Vorinostat; first compound 0.003162 µM): 0.497 | relative viability (Gemcitabine + Vorinostat; first compound 0.01 µM): 0.272 | relative viability (Gemcitabine + Vorinostat; first compound 0.03162 µM): 0.251 | relative viability (Gemcitabine + Vorinostat; first compound 0.1 µM): 0.2

NCI-H647
relative viability (Gemcitabine + Pemetrexed; first compound 0.001 µM): 0.211 | relative viability (Gemcitabine + Pemetrexed; first compound 0.003162 µM): 0.178 | relative viability (Gemcitabine + Pemetrexed; first compound 0.01 µM): 0.072 | relative viability (Gemcitabine + Pemetrexed; first compound 0.03162 µM): 0.0569 | relative viability (Gemcitabine + Pemetrexed; first compound 0.1 µM): 0.0589 | relative viability (Gemcitabine + Navitoclax; first compound 0.001 µM): 0.916 | relative viability (Gemcitabine + Navitoclax; first compound 0.003162 µM): 0.253 | relative viability (Gemcitabine + Navitoclax; first compound 0.01 µM): 0.0668 | relative viability (Gemcitabine + Navitoclax; first compound 0.03162 µM): 0.0642 | relative viability (Gemcitabine + Navitoclax; first compound 0.1 µM): 0.0514 | relative viability (Gemcitabine + Linsitinib; first compound 0.001 µM): 1.27 | relative viability (Gemcitabine + Linsitinib; first compound 0.003162 µM): 0.382 | relative viability (Gemcitabine + Linsitinib; first compound 0.01 µM): 0.0832 | relative viability (Gemcitabine + Linsitinib; first compound 0.03162 µM): 0.0779 | relative viability (Gemcitabine + Linsitinib; first compound 0.1 µM): 0.0445 | relative viability (Gemcitabine + Vorinostat; first compound 0.001 µM): 0.435 | relative viability (Gemcitabine + Vorinostat; first compound 0.003162 µM): 0.129 | relative viability (Gemcitabine + Vorinostat; first compound 0.01 µM): 0.0559 | relative viability (Gemcitabine + Vorinostat; first compound 0.03162 µM): 0.0673 | relative viability (Gemcitabine + Vorinostat; first compound 0.1 µM): 0.0443

NCI-H838
relative viability (Gemcitabine + Pemetrexed; first compound 0.001 µM): 0.251 | relative viability (Gemcitabine + Pemetrexed; first compound 0.003162 µM): 0.262 | relative viability (Gemcitabine + Pemetrexed; first compound 0.01 µM): 0.24 | relative viability (Gemcitabine + Pemetrexed; first compound 0.03162 µM): 0.241 | relative viability (Gemcitabine + Pemetrexed; first compound 0.1 µM): 0.149 | relative viability (Gemcitabine + Navitoclax; first compound 0.001 µM): 1.17 | relative viability (Gemcitabine + Navitoclax; first compound 0.003162 µM): 1.36 | relative viability (Gemcitabine + Navitoclax; first compound 0.01 µM): 1.09 | relative viability (Gemcitabine + Navitoclax; first compound 0.03162 µM): 0.367 | relative viability (Gemcitabine + Navitoclax; first compound 0.1 µM): 0.176 | relative viability (Gemcitabine + Linsitinib; first compound 0.001 µM): 1.05 | relative viability (Gemcitabine + Linsitinib; first compound 0.003162 µM): 1.12 | relative viability (Gemcitabine + Linsitinib; first compound 0.01 µM): 0.933 | relative viability (Gemcitabine + Linsitinib; first compound 0.03162 µM): 0.328 | relative viability (Gemcitabine + Linsitinib; first compound 0.1 µM): 0.14 | relative viability (Gemcitabine + Vorinostat; first compound 0.001 µM): 0.77 | relative viability (Gemcitabine + Vorinostat; first compound 0.003162 µM): 0.777 | relative viability (Gemcitabine + Vorinostat; first compound 0.01 µM): 0.66 | relative viability (Gemcitabine + Vorinostat; first compound 0.03162 µM): 0.479 | relative viability (Gemcitabine + Vorinostat; first compound 0.1 µM): 0.168

NCI-H1355
relative viability (Gemcitabine + Pemetrexed; first compound 0.001 µM): 1 | relative viability (Gemcitabine + Pemetrexed; first compound 0.003162 µM): 0.885 | relative viability (Gemcitabine + Pemetrexed; first compound 0.01 µM): 0.455 | relative viability (Gemcitabine + Pemetrexed; first compound 0.03162 µM): 0.173 | relative viability (Gemcitabine + Pemetrexed; first compound 0.1 µM): 0.162 | relative viability (Gemcitabine + Navitoclax; first compound 0.001 µM): 0.937 | relative viability (Gemcitabine + Navitoclax; first compound 0.003162 µM): 0.461 | relative viability (Gemcitabine + Navitoclax; first compound 0.01 µM): 0.168 | relative viability (Gemcitabine + Navitoclax; first compound 0.03162 µM): 0.109 | relative viability (Gemcitabine + Navitoclax; first compound 0.1 µM): 0.112 | relative viability (Gemcitabine + Linsitinib; first compound 0.001 µM): 0.816 | relative viability (Gemcitabine + Linsitinib; first compound 0.003162 µM): 0.606 | relative viability (Gemcitabine + Linsitinib; first compound 0.01 µM): 0.221 | relative viability (Gemcitabine + Linsitinib; first compound 0.03162 µM): 0.123 | relative viability (Gemcitabine + Linsitinib; first compound 0.1 µM): 0.129 | relative viability (Gemcitabine + Vorinostat; first compound 0.001 µM): 0.632 | relative viability (Gemcitabine + Vorinostat; first compound 0.003162 µM): 0.473 | relative viability (Gemcitabine + Vorinostat; first compound 0.01 µM): 0.274 | relative viability (Gemcitabine + Vorinostat; first compound 0.03162 µM): 0.166 | relative viability (Gemcitabine + Vorinostat; first compound 0.1 µM): 0.146

NCI-H1395
relative viability (Gemcitabine + Pemetrexed; first compound 0.001 µM): 0.91 | relative viability (Gemcitabine + Pemetrexed; first compound 0.003162 µM): 0.622 | relative viability (Gemcitabine + Pemetrexed; first compound 0.01 µM): 0.335 | relative viability (Gemcitabine + Pemetrexed; first compound 0.03162 µM): 0.296 | relative viability (Gemcitabine + Pemetrexed; first compound 0.1 µM): 0.312 | relative viability (Gemcitabine + Navitoclax; first compound 0.001 µM): 1.05 | relative viability (Gemcitabine + Navitoclax; first compound 0.003162 µM): 0.859 | relative viability (Gemcitabine + Navitoclax; first compound 0.01 µM): 0.525 | relative viability (Gemcitabine + Navitoclax; first compound 0.03162 µM): 0.61 | relative viability (Gemcitabine + Navitoclax; first compound 0.1 µM): 0.414 | relative viability (Gemcitabine + Linsitinib; first compound 0.001 µM): 1.02 | relative viability (Gemcitabine + Linsitinib; first compound 0.003162 µM): 0.814 | relative viability (Gemcitabine + Linsitinib; first compound 0.01 µM): 0.565 | relative viability (Gemcitabine + Linsitinib; first compound 0.03162 µM): 0.407 | relative viability (Gemcitabine + Linsitinib; first compound 0.1 µM): 0.334 | relative viability (Gemcitabine + Vorinostat; first compound 0.001 µM): 0.593 | relative viability (Gemcitabine + Vorinostat; first compound 0.003162 µM): 0.517 | relative viability (Gemcitabine + Vorinostat; first compound 0.01 µM): 0.384 | relative viability (Gemcitabine + Vorinostat; first compound 0.03162 µM): 0.331 | relative viability (Gemcitabine + Vorinostat; first compound 0.1 µM): 0.345

NCI-H1437
relative viability (Gemcitabine + Pemetrexed; first compound 0.001 µM): 0.285 | relative viability (Gemcitabine + Pemetrexed; first compound 0.003162 µM): 0.325 | relative viability (Gemcitabine + Pemetrexed; first compound 0.01 µM): 0.27 | relative viability (Gemcitabine + Pemetrexed; first compound 0.03162 µM): 0.276 | relative viability (Gemcitabine + Pemetrexed; first compound 0.1 µM): 0.254 | relative viability (Gemcitabine + Navitoclax; first compound 0.001 µM): 1.06 | relative viability (Gemcitabine + Navitoclax; first compound 0.003162 µM): 1.05 | relative viability (Gemcitabine + Navitoclax; first compound 0.01 µM): 0.555 | relative viability (Gemcitabine + Navitoclax; first compound 0.03162 µM): 0.206 | relative viability (Gemcitabine + Navitoclax; first compound 0.1 µM): 0.111 | relative viability (Gemcitabine + Linsitinib; first compound 0.001 µM): 1.05 | relative viability (Gemcitabine + Linsitinib; first compound 0.003162 µM): 0.875 | relative viability (Gemcitabine + Linsitinib; first compound 0.01 µM): 0.406 | relative viability (Gemcitabine + Linsitinib; first compound 0.03162 µM): 0.213 | relative viability (Gemcitabine + Linsitinib; first compound 0.1 µM): 0.105 | relative viability (Gemcitabine + Vorinostat; first compound 0.001 µM): 0.749 | relative viability (Gemcitabine + Vorinostat; first compound 0.003162 µM): 0.792 | relative viability (Gemcitabine + Vorinostat; first compound 0.01 µM): 0.645 | relative viability (Gemcitabine + Vorinostat; first compound 0.03162 µM): 0.398 | relative viability (Gemcitabine + Vorinostat; first compound 0.1 µM): 0.232

NCI-H1651
relative viability (Gemcitabine + Pemetrexed; first compound 0.001 µM): 0.561 | relative viability (Gemcitabine + Pemetrexed; first compound 0.003162 µM): 0.575 | relative viability (Gemcitabine + Pemetrexed; first compound 0.01 µM): 0.584 | relative viability (Gemcitabine + Pemetrexed; first compound 0.03162 µM): 0.362 | relative viability (Gemcitabine + Pemetrexed; first compound 0.1 µM): 0.0991 | relative viability (Gemcitabine + Navitoclax; first compound 0.001 µM): 1.07 | relative viability (Gemcitabine + Navitoclax; first compound 0.003162 µM): 1.16 | relative viability (Gemcitabine + Navitoclax; first compound 0.01 µM): 0.928 | relative viability (Gemcitabine + Navitoclax; first compound 0.03162 µM): 0.204 | relative viability (Gemcitabine + Navitoclax; first compound 0.1 µM): 0.0844 | relative viability (Gemcitabine + Linsitinib; first compound 0.001 µM): 0.884 | relative viability (Gemcitabine + Linsitinib; first compound 0.003162 µM): 1.04 | relative viability (Gemcitabine + Linsitinib; first compound 0.01 µM): 0.69 | relative viability (Gemcitabine + Linsitinib; first compound 0.03162 µM): 0.211 | relative viability (Gemcitabine + Linsitinib; first compound 0.1 µM): 0.0842 | relative viability (Gemcitabine + Vorinostat; first compound 0.001 µM): 0.555 | relative viability (Gemcitabine + Vorinostat; first compound 0.003162 µM): 0.537 | relative viability (Gemcitabine + Vorinostat; first compound 0.01 µM): 0.548 | relative viability (Gemcitabine + Vorinostat; first compound 0.03162 µM): 0.301 | relative viability (Gemcitabine + Vorinostat; first compound 0.1 µM): 0.115

NCI-H1666
relative viability (Gemcitabine + Pemetrexed; first compound 0.001 µM): 0.88 | relative viability (Gemcitabine + Pemetrexed; first compound 0.003162 µM): 0.842 | relative viability (Gemcitabine + Pemetrexed; first compound 0.01 µM): 0.842 | relative viability (Gemcitabine + Pemetrexed; first compound 0.03162 µM): 0.699 | relative viability (Gemcitabine + Pemetrexed; first compound 0.1 µM): 0.52 | relative viability (Gemcitabine + Navitoclax; first compound 0.001 µM): 0.872 | relative viability (Gemcitabine + Navitoclax; first compound 0.003162 µM): 0.836 | relative viability (Gemcitabine + Navitoclax; first compound 0.01 µM): 0.393 | relative viability (Gemcitabine + Navitoclax; first compound 0.03162 µM): 0.281 | relative viability (Gemcitabine + Navitoclax; first compound 0.1 µM): 0.275 | relative viability (Gemcitabine + Linsitinib; first compound 0.001 µM): 0.789 | relative viability (Gemcitabine + Linsitinib; first compound 0.003162 µM): 0.882 | relative viability (Gemcitabine + Linsitinib; first compound 0.01 µM): 0.435 | relative viability (Gemcitabine + Linsitinib; first compound 0.03162 µM): 0.286 | relative viability (Gemcitabine + Linsitinib; first compound 0.1 µM): 0.285 | relative viability (Gemcitabine + Vorinostat; first compound 0.001 µM): 1.02 | relative viability (Gemcitabine + Vorinostat; first compound 0.003162 µM): 0.955 | relative viability (Gemcitabine + Vorinostat; first compound 0.01 µM): 0.963 | relative viability (Gemcitabine + Vorinostat; first compound 0.03162 µM): 0.927 | relative viability (Gemcitabine + Vorinostat; first compound 0.1 µM): 0.576
